Publication PMC8826726, “Selective Toxicity of Secondary Metabolites from the Entomopathogenic Bacterium Photorhabdus luminescens sonorensis against Selected Plant Parasitic Nematodes of the Tylenchina Suborder” (Microbiology Spectrum, 2022)
In brackets after ≈: the same amount, converted by molar mass. Read-outs that look alike come from different tables or passages of the source.

Assays:
Assay type in all cases: cell-based
H. sonorensis = assay: In vitro nematistatic assay (temporary paralysis), non-target species; settings: Heterorhabditis sonorensis; reversible paralysis, 24 h exposure
[1] = test system: Meloidogyne incognita J2 juveniles; assay: In vitro nematistatic assay (temporary paralysis)
C. elegans = assay: In vitro nematistatic assay (temporary paralysis), non-target species; settings: Caenorhabditis elegans; reversible paralysis, 24 h exposure
Meloidogyne incognita J2 = assay: Recovery from indole-induced temporary paralysis after rinsing with water

SMILES: c1ccc2[nH]ccc2c1 [Indole, indole]
- EC50 (H. sonorensis): > 400 µg/mL
- EC10 ([1]; 24 h exposure): 41.3 (36.8, 44.9) μg/mL
- EC25 ([1]; 24 h exposure): 47.8 (43.9, 51.1) μg/mL
- EC50 ([1]; 24 h exposure): 56.3 µg/mL (≈ 481 µM)
- EC10 ([1]; 48 h exposure): 44.3 (36.8, 49.7) μg/mL
- EC25 ([1]; 48 h exposure): 51.7 (45.0, 56.6) μg/mL
- EC10 ([1]; 72 h exposure): 62.9 (31.4, 72.3) μg/mL
- EC25 ([1]; 72 h exposure): 68.9 (42.1, 76.9) μg/mL
- EC50 ([1]; Meloidogyne incognita, 24 h, 24 h exposure, read-out: EC50): 56 µg/mL (≈ 478 µM)
- EC90 ([1]; Meloidogyne incognita, 24 h exposure): 77 µg/mL (≈ 657 µM)
- EC50 ([1]; Meloidogyne incognita, 48 h, 48 h exposure, read-out: EC50): 61.3 µg/mL (≈ 523 µM)
- EC90 ([1]; Meloidogyne incognita, 48 h exposure): 84.7 µg/mL (≈ 723 µM)
- EC50 ([1]; Meloidogyne incognita, 72 h, 72 h exposure, read-out: EC50): 76.3 µg/mL (≈ 651 µM)
- EC90 ([1]; Meloidogyne incognita, 72 h exposure): 92.5 µg/mL (≈ 790 µM)
- EC50 (C. elegans): 159 µg/mL (≈ 1360 µM)
- Recovery after 24 h in water (Meloidogyne incognita J2; 60 μg/mL, 24-h exposure to treatment): 95.9%
- Recovery after 24 h in water (Meloidogyne incognita J2; 60 μg/mL, 72-h exposure to treatment): 95.5%
- Recovery after 24 h in water (Meloidogyne incognita J2; 80 μg/mL, 24-h exposure to treatment): 94.9%
- Recovery after 24 h in water (Meloidogyne incognita J2; 80 μg/mL, 72-h exposure to treatment): 92.8%
- M. incognita regaining baseline mobility during a recovery period of 24 h (Meloidogyne incognita J2; regardless of length of prior exposure (24 h to 72 h)): over 90%
